“And” between values parts separate entries of the source, which are not always exact repeats. Equal values may be shown once.
What was measured:
ALK R1275Q = ALK R1275Q (Homo sapiens, UniProt Q9UM73, R1275Q); test: ALK enzymatic IC50, R1275Q; assay type: biochemical
Excerpt: (§1) Supplement 12916_2022_2646_MOESM1_ESM.docx, table 1 | column: ALK Enzymatic IC50 (nM)

ALK G1202R = ALK G1202R (Homo sapiens, UniProt Q9UM73, G1202R); test: ALK enzymatic IC50, G1202R; assay type: biochemical
Excerpt: as §1

ALK L1196M = ALK L1196M (Homo sapiens, UniProt Q9UM73, L1196M); test: ALK enzymatic IC50, L1196M; assay type: biochemical
Excerpt: as §1

[1] = system: brain metastasis of ALK-positive NSCLC; test: Intracranial response in patients with measurable brain metastatic lesions; assay type: in vivo, human
ALK-positive NSCLC = test: Phase 1 efficacy assessment (RECIST 1.1, investigator-assessed);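 further: tumours imaged by CT or MRI at baseline, after cycle 1, then every 8 weeks to cycle 29 and every 12 weeks until progression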
FAK = system: FAK; parameters: method as in PMID 27638856; conditions: less potent than the inhibition to ALK; cited from earlier work
[2] = ALK TKI-naïve, 300 mg BID (n=6)
[3] = ALK TKI-naïve, 600 mg QD (n=12)
[4] = All patients, 300 mg BID (n=11)
[5] = Received crizotinib previously, 50 mg QD (n=1)
[6] = Received crizotinib previously, 200 mg QD (n=1)
[7] = Received crizotinib previously, 300 mg BID (n=5)
[8] = Received crizotinib previously, 300 mg QD (n=1)
[9] = Received crizotinib previously, 600 mg QD (n=6)
[10] = Received crizotinib previously, 800 mg QD (n=1)
[11] = waterfall plot, evaluable patients (n=60)

`COc1cc(N2CCC(N3CCN(C)CC3)CC2)ccc1Nc1nc2c(c(Nc3ccccc3S(=O)(=O)NC(C)C)n1)CCN2` [Conteltinib] showed an IC50 (ALK R1275Q) of 1.2 nM, an IC50 (ALK G1202R) of 6.3 nM and an IC50 (ALK L1196M) of 3.8 nM. For the same molecule, the “Intracranial DCR (95% CI)” value ([1]; 300 mg BID (n=1)) was 100.0% (2.5-100.0), the “Intracranial ORR (95% CI)” value ([1]; 300 mg BID (n=1)) was 0.0% (0.0-97.5) and the “Intracranial DCR (95% CI)” value ([1]; 450 mg QD (n=2)) was 100.0% (15.8-100.0). The “Intracranial ORR (95% CI)” value ([1]; 450 mg QD (n=2)) was 50% (1.3-98.7), the “Intracranial DCR (95% CI)” value ([1]; 600 mg QD (n=3)) was 66.7% (9.4-99.2) and the “Intracranial ORR (95% CI)” value ([1]; 600 mg QD (n=3)) was 33.3% (0.8-90.6). For the same molecule, the CR rate (ALK-positive NSCLC; 39 ALK TKI-naïve patients) was 2.6%, the PR rate (ALK-positive NSCLC; 39 ALK TKI-naïve patients) was 61.5% and the “number of patients with objective response” value (ALK-positive NSCLC; 39 ALK TKI-naïve patients) was 25 patients. The “patients with tumor regression” value (ALK-positive NSCLC; 50/60 patients) was 83.3%, the “DCR (95% CI)” value (ALK-positive NSCLC; ALK TKI-naïve, 50 mg QD (n=1)) was 100.0% (2.5–100.0) and the “ORR (95% CI)” value (ALK-positive NSCLC; ALK TKI-naïve, 50 mg QD (n=1)) was 100.0% (2.5–100.0). The “DoR, Median (95% CI)” value (ALK-positive NSCLC; ALK TKI-naïve, 100 mg QD (n=6)) was 11.1 (5.61–15.0) months, the “PFS, Median (95% CI)” value (ALK-positive NSCLC; ALK TKI-naïve, 100 mg QD (n=6)) was 11.3 (2.75–15.9) months and the “DoR, Median (95% CI)” value (ALK-positive NSCLC; ALK TKI-naïve, 200 mg QD (n=2)) was 5.51 (NE–NE) months. The “ORR (95% CI)” value (ALK-positive NSCLC; ALK TKI-naïve, 200 mg QD (n=2)) was 50.0% (1.3–98.7), the “PFS, Median (95% CI)” value (ALK-positive NSCLC; ALK TKI-naïve, 200 mg QD (n=2)) was 5.89 (3.25–8.54) months and the “DoR, Median (95% CI)” value (ALK-positive NSCLC; [2]) was 10.6 (1.80–10.6) months. For the same molecule, the “PFS, Median (95% CI)” value (ALK-positive NSCLC; [2]) was 17.8 (3.05–19.6) months, the “DCR (95% CI)” value (ALK-positive NSCLC; ALK TKI-naïve, 300 mg QD (n=2)) was 100.0% (15.8–100.0) and the “DoR, Median (95% CI)” value (ALK-positive NSCLC; ALK TKI-naïve, 300 mg QD (n=2)) was 17.4 (9.06–25.8) months. For the same molecule, the “ORR (95% CI)” value (ALK-positive NSCLC; ALK TKI-naïve, 300 mg QD (n=2)) was 100.0% (15.8–100.0), the “PFS, Median (95% CI)” value (ALK-positive NSCLC; ALK TKI-naïve, 300 mg QD (n=2)) was 19.5 (10.2–28.8) months and the “DoR, Median (95% CI)” value (ALK-positive NSCLC; ALK TKI-naïve, 450 mg QD (n=8)) was “NE (3.74–NE)”. The “PFS, Median (95% CI)” value (ALK-positive NSCLC; ALK TKI-naïve, 450 mg QD (n=8)) was “NE (4.63–NE)”, the “DoR, Median (95% CI)” value (ALK-positive NSCLC; [3]) was 16.5 (1.80–32.8) months and the “PFS, Median (95% CI)” value (ALK-positive NSCLC; [3]) was 19.3 (1.05–32.4) months. The “DCR (95% CI)” value (ALK-positive NSCLC; ALK TKI-naïve, 800 mg QD (n=2)) was 100.0% (15.8–100.0), the “DoR, Median (95% CI)” value (ALK-positive NSCLC; ALK TKI-naïve, 800 mg QD (n=2)) was 28.0 (NE–NE) months and the “ORR (95% CI)” value (ALK-positive NSCLC; ALK TKI-naïve, 800 mg QD (n=2)) was 50.0% (1.3–98.7). For the same molecule, the “PFS, Median (95% CI)” value (ALK-positive NSCLC; ALK TKI-naïve, 800 mg QD (n=2)) was 19.8 (10.3–29.2) months, the “DoR, Median (95% CI)” value (ALK-positive NSCLC; ALK TKI-naïve, Total (n=39)) was 15.0 (9.06–25.8) months and the “PFS, Median (95% CI)” value (ALK-positive NSCLC; ALK TKI-naïve, Total (n=39)) was 15.9 (9.26–23.3) months. For the same molecule, the “DCR (95% CI)” value (ALK-positive NSCLC; All patients, 50 mg QD (n=2)) was 50.0% (1.3–98.7), the “ORR (95% CI)” value (ALK-positive NSCLC; All patients, 50 mg QD (n=2)) was 50.0% (1.3–98.7) and the “PFS, Median (95% CI)” value (ALK-positive NSCLC; All patients, 50 mg QD (n=2)) was “NE (1.21–NE)”. The “DoR, Median (95% CI)” value (ALK-positive NSCLC; All patients, 100 mg QD (n=7)) was 11.1 (5.61–15.0) months, the “PFS, Median (95% CI)” value (ALK-positive NSCLC; All patients, 100 mg QD (n=7)) was 8.57 (0.95–15.9) months and the “DCR (95% CI)” value (ALK-positive NSCLC; All patients, 200 mg QD (n=3)) was 33.3% (0.8–90.6). For the same molecule, the “DoR, Median (95% CI)” value (ALK-positive NSCLC; All patients, 200 mg QD (n=3)) was 5.51 (NE–NE) months, the “ORR (95% CI)” value (ALK-positive NSCLC; All patients, 200 mg QD (n=3)) was 33.3% (0.8–90.6) and the “PFS, Median (95% CI)” value (ALK-positive NSCLC; All patients, 200 mg QD (n=3)) was 3.25 (1.34–8.54) months. The “DoR, Median (95% CI)” value (ALK-positive NSCLC; [4]) was 5.58 (1.80–10.6) months, the “PFS, Median (95% CI)” value (ALK-positive NSCLC; [4]) was 7.68 (3.05–17.8) months and the “DCR (95% CI)” value (ALK-positive NSCLC; All patients, 300 mg QD (n=3)) was 100.0% (29.2–100.0). The “DoR, Median (95% CI)” value (ALK-positive NSCLC; All patients, 300 mg QD (n=3)) was 17.4 (9.06–25.8) months, the “ORR (95% CI)” value (ALK-positive NSCLC; All patients, 300 mg QD (n=3)) was 66.7% (9.4–99.2) and the “PFS, Median (95% CI)” value (ALK-positive NSCLC; All patients, 300 mg QD (n=3)) was 10.2 (4.92–28.8) months. For the same molecule, the “DoR, Median (95% CI)” value (ALK-positive NSCLC; All patients, 450 mg QD (n=13)) was “NE (3.74–NE)”, the “PFS, Median (95% CI)” value (ALK-positive NSCLC; All patients, 450 mg QD (n=13)) was 26.9 (4.63–NE) months and the “DoR, Median (95% CI)” value (ALK-positive NSCLC; All patients, 600 mg QD (n=18)) was 15.6 (1.80–22.2) months. For the same molecule, the “PFS, Median (95% CI)” value (ALK-positive NSCLC; All patients, 600 mg QD (n=18)) was 13.2 (4.69–23.0) months, the “DCR (95% CI)” value (ALK-positive NSCLC; All patients, 800 mg QD (n=3)) was 100.0% (29.2–100.0) and the “DoR, Median (95% CI)” value (ALK-positive NSCLC; All patients, 800 mg QD (n=3)) was 17.3 (6.60–28.0) months. The “ORR (95% CI)” value (ALK-positive NSCLC; All patients, 800 mg QD (n=3)) was 66.7% (9.4–99.2), the “PFS, Median (95% CI)” value (ALK-positive NSCLC; All patients, 800 mg QD (n=3)) was 10.3 (7.72–29.2) months and the “DoR, Median (95% CI)” value (ALK-positive NSCLC; All patients, Total (n=60)) was 13.3 (6.60–22.2) months. For the same molecule, the “PFS, Median (95% CI)” value (ALK-positive NSCLC; All patients, Total (n=60)) was 9.26 (6.73–15.7) months, the “patients achieving CR” value (ALK-positive NSCLC; FAS, 60 patients) was 1.7% and the “patients achieving PR” value (ALK-positive NSCLC; FAS, 60 patients) was 51.7%. For the same molecule, the “patients attaining SD” value (ALK-positive NSCLC; FAS, 60 patients) was 26.7%, the “patients experiencing PD” value (ALK-positive NSCLC; FAS, 60 patients) was 16.7% and the “DCR (95% CI)” value (ALK-positive NSCLC; [5]) was 0.0% (0.0–97.5). For the same molecule, the “ORR (95% CI)” value (ALK-positive NSCLC; [5]) was 0.0% (0.0–97.5), the “PFS, Median (95% CI)” value (ALK-positive NSCLC; [5]) was 1.21 (NE–NE) months and the “PFS, Median (95% CI)” value (ALK-positive NSCLC; Received crizotinib previously, 100 mg QD (n=1)) was 0.95 months and 0.95 (NE–NE) months. The “DCR (95% CI)” value (ALK-positive NSCLC; [6]) was 0.0% (0.0–97.5), the “ORR (95% CI)” value (ALK-positive NSCLC; [6]) was 0.0% (0.0–97.5) and the “PFS, Median (95% CI)” value (ALK-positive NSCLC; [6]) was 1.34 (NE–NE) months. For the same molecule, the “DoR, Median (95% CI)” value (ALK-positive NSCLC; [7]) was 5.58 (4.63–7.39) months, the “PFS, Median (95% CI)” value (ALK-positive NSCLC; [7]) was 7.09 (4.73–8.54) months and the “DCR (95% CI)” value (ALK-positive NSCLC; [8]) was 100.0% (54.1–100.0). The “ORR (95% CI)” value (ALK-positive NSCLC; [8]) was 0.0% (0.0–97.5), the “PFS, Median (95% CI)” value (ALK-positive NSCLC; [8]) was 4.92 (NE–NE) months and the “PFS, Median (95% CI)” value (ALK-positive NSCLC; Received crizotinib previously, 450 mg QD (n=5)) was 8.34 (3.02–26.9) months. The “DoR, Median (95% CI)” value (ALK-positive NSCLC; [9]) was 13.3 (3.77–16.5) months, the “PFS, Median (95% CI)” value (ALK-positive NSCLC; [9]) was 9.37 (4.69–17.7) months and the “DCR (95% CI)” value (ALK-positive NSCLC; [10]) was 100.0% (2.5–100.0). The “DoR, Median (95% CI)” value (ALK-positive NSCLC; [10]) was 6.60 (NE–NE) months, the “ORR (95% CI)” value (ALK-positive NSCLC; [10]) was 100.0% (2.5–100.0) and the “PFS, Median (95% CI)” value (ALK-positive NSCLC; [10]) was 7.72 (NE–NE) months. For the same molecule, the “tumor size changes relative to baseline” value (ALK-positive NSCLC; across all patients (n=60)) was −100 to 74%, the “number of patients with CR” value (ALK-positive NSCLC; [11]) was “One” and the “number of patients with PD” value (ALK-positive NSCLC; [11]) was 10 patients. The “number of patients with PR” value (ALK-positive NSCLC; [11]) was 31 patients and the FAK inhibition (FAK) was “inhibits”.
